Measurements published in patent US10647675B2 (priority 2015, dated 2020).
Converted amounts (≈) assume the structure as drawn.

Legend:
[1] = tested on: Trichophyton mentagrophytes SM-110; assay: Antifungal activity evaluation test: minimum inhibitory concentration (MIC), broth dilution by reference to CLSI M38-A2; assay type: cell-based; conditions: SM110, read-out: MIC (T. menta.)
Method in brief: (§1)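 MIC read visually as lowest concentration inhibiting growth by at least 80% relative to control after 4 days at 35° C. Trichophyton strains inoculated at 2×10^3 cells/mL final in MOPS-buffered RPMI 1640 (pH 7.0); compounds as 2-fold DMSO series, CLSI M38-A2 basis.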

[2] = tested on: Trichophyton rubrum KD-1130; assay: as above; assay type: cell-based; conditions: KD1130, read-out: MIC (T. rubrum)
Method in brief: as §1

Q: How did the MIC [1] turn out when COc1ncccc1-c1cccnc1Oc1cnc2c(c1)CCCC2 [I-135, 3-{[2′-methoxy-(3,3′-bipyridin)-2-yl]oxy}-5,6,7,8-tetrahydroquinoline] was run?
A: ≤ 0.1 µg/mL

Q: What about the MIC [2] of the same compound?
A: ≤ 0.1 µg/mL

Q: Which MIC [1] does the source give for COc1ccccc1-c1cccnc1Oc1cnc2c(c1)CCCCC2 [I-136, 3-{[3-(2-methoxyphenyl)pyridin-2-yl]oxy}-6,7,8,9-tetrahydro-5H-cyclohepta[b]pyridine] here?
A: ≤ 0.1 µg/mL

Q: And the MIC [2]?
A: ≤ 0.1 µg/mL

Q: How did the MIC [1] turn out when c1cnc(Oc2cnc3c(c2)CCCC3)c(-c2cccc3c2OCC3)c1 [I-137, 3-{[3-(2,3-dihydrobenzyofuran-7-yl)pyridin-2-yl]oxy}-5,6,7,8-tetrahydroquinoline] was run?
A: ≤ 0.1 µg/mL

Q: And the MIC [2]?
A: ≤ 0.1 µg/mL

Q: Which results are given for c1cnc(Oc2cnc3c(c2)CCC3)c(-c2cccc3c2OCC3)c1 [I-138, 3-{[3-(2,3-dihydrobenzofuran-7-yl)pyridin-2-yl]oxy}-6,7-dihydro-5H-cyclopenta[b]pyridine]?
A: MIC [1]: ≤ 0.1 µg/mL; MIC [2]: ≤ 0.1 µg/mL

Q: For COc1ccccc1-c1cccnc1Oc1cnc2c(c1)CCCC2OC(C)=O (stereo not drawn) [I-139, 3-{[3-(2-methoxyphenyl)pyridin-2-yl]oxy}-5,6,7,8-tetrahydroquinolin-8-yl acetate], which MIC [1] is on record?
A: 1.56 to 6.25 µg/mL

Q: And the MIC [2]?
A: 1.56 to 6.25 µg/mL

Q: COc1ccccc1-c1cccnc1Oc1cnc2c(c1)CCCC2O (stereo not drawn) [I-140, 3-{[3-(2-methoxyphenyl)pyridin-2-yl]oxy}-5,6,7,8-tetrahydroquinolin-8-ol] was tested. Which MIC [1] did it give?
A: 0.2 to 0.78 µg/mL (≈ 0.574 to 2.24 µM)

Q: And the MIC [2]?
A: 0.2 to 0.78 µg/mL (≈ 0.574 to 2.24 µM)

Q: With COc1ccccc1-c1cccnc1Oc1cnc2c(c1)CCCC2=O [I-141, 3-{[3-(2-methoxyphenyl)pyridin-2-yl]oxy}-6,7-dihydroquinolin-8(5H)-one] as the compound, how does the MIC [1] read?
A: 1.56 to 6.25 µg/mL (≈ 4.5 to 18 µM)

Q: And the MIC [2]?
A: 1.56 to 6.25 µg/mL (≈ 4.5 to 18 µM)

Q: COc1ccccc1-c1cccnc1Oc1cnc2c(c1)CCCC2(F)F [I-142, 8,8-difluoro-3-{[3-(2-methoxyphenyl)pyridin-2-yl]oxy}-5,6,7,8-tetrahydroquinoline] was tested. Which MIC [1] did it give?
A: ≤ 0.1 µg/mL

Q: And the MIC [2]?
A: ≤ 0.1 µg/mL

Q: Which results are given for COc1ccccc1-c1cccnc1Oc1cnc2c(c1)CCCC2N(C)C (stereo not drawn) [I-143, 3-{[3-(2-methoxyphenyl)pyridin-2-yl]oxy}-N,N-dimethyl-5,6,7,8-tetrahydroquinolin-8-amine]?
A: MIC [1]: 0.2 to 0.78 µg/mL (≈ 0.533 to 2.08 µM); MIC [2]: 0.2 to 0.78 µg/mL (≈ 0.533 to 2.08 µM)

Q: How did the MIC [1] turn out when COc1ccccc1-c1cccnc1Oc1cnc2c(c1)CCC=C2 [I-144, 3-{[3-(2-methoxyphenyl)pyridin-2-yl]oxy}-5,6-dihydroquinoline] was run?
A: ≤ 0.1 µg/mL

Q: What about the MIC [2] of the same compound?
A: ≤ 0.1 µg/mL

Q: Which MIC [1] does the source give for COCC(F)(F)c1ccc(Oc2ncccc2-c2ccccc2OC)cn1 [I-145, 2-{[6-(1,1-difluoro-2-methoxyethyl)pyridin-3-yl]oxy}-3-(2-methoxyphenyl)pyridine] here?
A: ≤ 0.1 µg/mL

Q: What about the MIC [2] of the same compound?
A: ≤ 0.1 µg/mL

Q: CNCC(F)(F)c1ccc(Oc2ncccc2-c2ccccc2OC)cn1 [I-146, 2,2-difluoro-2-(5-{[3-(2-methoxyphenyl)pyridin-2-yl]oxy}-pyridin-2-yl)-N-methylethanamine] was tested. Which MIC [1] did it give?
A: 0.2 to 0.78 µg/mL (≈ 0.539 to 2.1 µM)

Q: And the MIC [2]?
A: 1.56 to 6.25 µg/mL (≈ 4.2 to 16.8 µM)

Q: Which MIC [1] does the source give for COc1ccccc1-c1cccnc1Oc1ccc(C(F)(F)CN(C)C)nc1 [I-147, 2,2-difluoro-2-(5-{[3-(2-methoxyphenyl)pyridin-2-yl]oxy}-2-yl)-N,N-dimethylethanamine] here?
A: ≤ 0.1 µg/mL

Q: What about the MIC [2] of the same compound?
A: 0.2 to 0.78 µg/mL (≈ 0.519 to 2.02 µM)

Q: COc1ccccc1-c1cccnc1Oc1ccc(C(F)(F)CN2CCOCC2)nc1 [I-148, 4-[2,2-difluoro-2-(5-{[3-(2-methoxyphenyl)pyridin-2-yl]oxy}pyridin-2-yl)-ethyl]morpholine] was tested. Which MIC [1] did it give?
A: 0.2 to 0.78 µg/mL (≈ 0.468 to 1.82 µM)

Q: What about the MIC [2] of the same compound?
A: 0.2 to 0.78 µg/mL (≈ 0.468 to 1.82 µM)

Q: Which results are given for CCN(C)CC(F)(F)c1ccc(Oc2ncccc2-c2ccccc2OC)cn1 [I-149, N-ethyl-2,2-difluoro-2-(5-{[3-(2-methoxyphenyl)pyridin-2-yl]oxy}-pyridin-2-yl)-N-methylethanamine]?
A: MIC [1]: 0.2 to 0.78 µg/mL (≈ 0.501 to 1.95 µM); MIC [2]: 0.2 to 0.78 µg/mL (≈ 0.501 to 1.95 µM)

Q: COc1ccccc1-c1cccnc1Oc1ccc(C(F)(F)CN(C)OC)nc1 [I-150, N-[2,2-difluoro-2-(5-{[3-(2-methoxyphenyl)pyridin-2-yl]oxy}pyridin-2-yl)ethyl]-N,O-dimethylhydroxylamine] was tested. Which MIC [1] did it give?
A: ≤ 0.1 µg/mL

Q: And the MIC [2]?
A: ≤ 0.1 µg/mL

Q: With COc1ccccc1-c1cccnc1Oc1ccc(C(F)(F)CN(C)C(C)=O)nc1 [I-151, N-[2,2-difluoro-2-(5-{[3-(2-methoxyphenyl)pyridin-2-yl]oxy}-2-yl)-ethyl]-N-methylacetamide] as the compound, how does the MIC [1] read?
A: 0.2 to 0.78 µg/mL (≈ 0.484 to 1.89 µM)

Q: What about the MIC [2] of the same compound?
A: 0.2 to 0.78 µg/mL (≈ 0.484 to 1.89 µM)

Q: How did the MIC [1] turn out when COC(=O)N(C)CC(F)(F)c1ccc(Oc2ncccc2-c2ccccc2OC)cn1 [I-152, methyl [2,2-difluoro-2-(5-{[3-(2-methoxyphenyl)pyridin-2-yl]oxy}pyridin-2-yl)ethyl](methyl)carbamate] was run?
A: 0.2 to 0.78 µg/mL (≈ 0.466 to 1.82 µM)

Q: And the MIC [2]?
A: 0.2 to 0.78 µg/mL (≈ 0.466 to 1.82 µM)

Q: Which results are given for COc1ccccc1-c1cccnc1Oc1ccc(C(F)(F)Cn2cc(C)cn2)nc1 [I-153, 2-{(6-[1,1-difluoro-2-(4-methyl-1H-pyrazol-1-yl)ethyl]pyridin-3-yl}oxy)-3-(2-methoxyphenyl)pyridine]?
A: MIC [1]: ≤ 0.1 µg/mL; MIC [2]: ≤ 0.1 µg/mL

Q: How did the MIC [1] turn out when COc1cc(F)ccc1-c1cccnc1Oc1ccc(C(F)(F)CO)nc1 [I-154, 2,2-difluoro-2-(5-{[3-(4-fluoro-2-methoxyphenyl)pyridin-2-yl]oxy}pyridin-2-yl)-ethanol] was run?
A: 0.2 to 0.78 µg/mL (≈ 0.531 to 2.07 µM)

Q: And the MIC [2]?
A: 0.2 to 0.78 µg/mL (≈ 0.531 to 2.07 µM)

Q: Which MIC [1] does the source give for CCOCC(F)(F)c1ccc(Oc2ncccc2-c2ccc(F)cc2OC)cn1 [I-155, 2-{[6-(2-ethoxy-1,1-difluoroethyl)pyridin-3-yl]oxy}-3-(4-fluoro-2-methoxyphenyl)pyridine] here?
A: ≤ 0.1 µg/mL

Q: What about the MIC [2] of the same compound?
A: ≤ 0.1 µg/mL

Q: Which results are given for COc1cc(F)ccc1-c1cccnc1Oc1ccc(C(F)(F)Cn2cccn2)nc1 [I-157, 2-{(6-[1,1-difluoro-2-(1H-pyrazol-1-yl)ethyl]pyridin-3-yl)oxy}-3-(4-fluoro-2-methoxyphenyl)pyridine]?
A: MIC [1]: ≤ 0.1 µg/mL; MIC [2]: ≤ 0.1 µg/mL

Q: What does the source list for COc1cc(F)ccc1-c1cccnc1Oc1ccc(C(F)(F)Cn2ccnc2)nc1 [I-158, 2-{(6-[1,1-difluoro-2-(1H-imidazol-1-yl)ethyl]pyridin-3-yl)oxy}-3-(4-fluoro-2-methoxyphenyl)pyridine]?
A: MIC [1]: ≤ 0.1 µg/mL; MIC [2]: 0.2 to 0.78 µg/mL (≈ 0.469 to 1.83 µM)

Q: What does the source list for COCCOCC(F)(F)c1ccc(Oc2ncccc2-c2ccc(F)cc2OC)cn1 [I-159, 2-({6-[1,1-difluoro-2-(2-methoxyethoxy)ethyl]pyridin-3-yl}oxy)-3-(4-fluoro-2-methoxyphenyl)pyridine]?
A: MIC [1]: ≤ 0.1 µg/mL; MIC [2]: 0.2 to 0.78 µg/mL (≈ 0.46 to 1.8 µM)

Q: With C#CCOCC(F)(F)c1ccc(Oc2ncccc2-c2ccccc2OC)cn1 [I-160, 2-({6-[1,1-difluoro-2-(2-propyl-1-yloxy)ethyl]pyridin-3-yl}oxy)-3-(2-methoxyphenyl)pyridine] as the compound, how does the MIC [1] read?
A: ≤ 0.1 µg/mL

Q: And the MIC [2]?
A: ≤ 0.1 µg/mL

Q: With COCC(F)(F)c1ccc(Oc2ncccc2-c2ccc(F)cc2OC)cn1 [I-161, 2-{[6-(1,1-difluoro-2-methoxyethyl)pyridin-3-yl]oxy}-3-(4-fluoro-2-methoxyphenyl)pyridine] as the compound, how does the MIC [1] read?
A: ≤ 0.1 µg/mL

Q: And the MIC [2]?
A: ≤ 0.1 µg/mL

Q: With COCC(F)(F)c1ccc(Oc2ncccc2-c2cc(F)ccc2OC)cn1 [I-162, 2-{[6-(1,1-difluoro-2-methoxyethyl)pyridin-3-yl]oxy}-3-(5-fluoro-2-methoxyphenyl)pyridine] as the compound, how does the MIC [1] read?
A: ≤ 0.1 µg/mL

Q: And the MIC [2]?
A: ≤ 0.1 µg/mL

Q: How did the MIC [1] turn out when COCC(F)(F)c1ccc(Oc2ncccc2-c2cc(Cl)ccc2OC)cn1 [I-163, 3-(5-chloro-2-methoxyphenyl)-2-{[6-(1,1-difluoro-2-methoxyethyl)pyridin-3-yl]oxy}pyridine] was run?
A: ≤ 0.1 µg/mL

Q: What about the MIC [2] of the same compound?
A: ≤ 0.1 µg/mL

Q: Which results are given for COCC(F)(F)c1ccc(Oc2ncccc2-c2cc(OC)c(F)cc2F)cn1 [I-165, 2-{[6-(1,1-difluoro-2-methoxyethyl)pyridin-3-yl]oxy}-3-(2,4-difluoro-5-methoxyphenyl)pyridine]?
A: MIC [1]: ≤ 0.1 µg/mL; MIC [2]: ≤ 0.1 µg/mL

Q: How did the MIC [1] turn out when COCC(F)(F)c1ccc(Oc2ncccc2-c2cccc3c2OCC3)cn1 [I-166, 2-{[6-(1,1-difluoro-2-methoxyethyl)pyridin-3-yl]oxy}-3-(2,3-dihydrobenzofuran-7-yl)pyridine] was run?
A: ≤ 0.1 µg/mL

Q: What about the MIC [2] of the same compound?
A: ≤ 0.1 µg/mL

Q: Which MIC [1] does the source give for COCC(F)(F)c1ccc(Oc2ncccc2-c2cccc3ccnn23)cn1 [I-167, 7-(2-{[6-(1,1-difluoro-2-methoxyethyl)pyridin-3-yl]oxy}pyridin-3-yl)pyrazolo[1,5-a]pyridine] here?
A: 0.2 to 0.78 µg/mL (≈ 0.523 to 2.04 µM)

Q: And the MIC [2]?
A: 0.2 to 0.78 µg/mL (≈ 0.523 to 2.04 µM)

Q: Which results are given for COCC(F)(F)c1ccc(Oc2ncccc2-c2cccc3nccnc23)cn1 [I-168, 5-(2-{[6-(1,1-difluoro-2-methoxyethyl)pyridin-3-yl]oxy}pyridin-3-yl)quinoxaline]?
A: MIC [1]: 0.2 to 0.78 µg/mL (≈ 0.507 to 1.98 µM); MIC [2]: 0.2 to 0.78 µg/mL (≈ 0.507 to 1.98 µM)

Q: What does the source list for COCC(F)(F)c1ccc(Oc2ncccc2-c2cccc3cccnc23)cn1 [I-169, 8-(2-{[6-(1,1-difluoro-2-methoxyethyl)pyridin-3-yl]oxy}pyridin-3-yl)quinoline]?
A: MIC [1]: 0.2 to 0.78 µg/mL (≈ 0.508 to 1.98 µM); MIC [2]: 0.2 to 0.78 µg/mL (≈ 0.508 to 1.98 µM)

Q: With COCC(F)(F)c1ccc(Oc2ncccc2-c2cc(F)cc3nccnc23)cn1 [I-170, 5-(2-{[6-(1,1-difluoro-2-methoxyethyl)pyridin-3-yl]oxy}pyridin-3-yl)-7-fluoroquinoxaline] as the compound, how does the MIC [1] read?
A: 0.2 to 0.78 µg/mL (≈ 0.485 to 1.89 µM)

Q: What about the MIC [2] of the same compound?
A: 0.2 to 0.78 µg/mL (≈ 0.485 to 1.89 µM)

Q: Which results are given for COc1ccccc1-c1cccnc1Oc1ccc(OCc2ccccc2)nc1 [I-171, 2-{[6-(benzyloxy)pyridin-3-yl]oxy}-3-(2-methoxyphenyl)pyridine]?
A: MIC [1]: ≤ 0.1 µg/mL; MIC [2]: ≤ 0.1 µg/mL

Q: For COc1ccccc1-c1cccnc1Oc1ccc(OCCc2ccccc2)nc1 [I-173, 3-(2-methoxyphenyl)-2-[(6-phenethoxypyridin-3-yl)oxy]pyridine], which MIC [1] is on record?
A: ≤ 0.1 µg/mL

Q: And the MIC [2]?
A: ≤ 0.1 µg/mL

Q: How did the MIC [1] turn out when COc1ccccc1-c1cccnc1Oc1ccc(OCc2cccnc2)nc1 [I-174, 3-(2-methoxyphenyl)pyridin-2-{[6-(pyridin-3-ylmethoxy)pyridin-3-yl]oxy}pyridine] was run?
A: ≤ 0.1 µg/mL

Q: And the MIC [2]?
A: ≤ 0.1 µg/mL

Q: Which results are given for COc1ccccc1-c1cccnc1Oc1ccc(COc2ccccc2)nc1 [I-175, 3-(2-methoxyphenyl)-2-{[6-(phenoxymethyl)pyridin-3-yl]oxy}pyridine]?
A: MIC [1]: 0.2 to 0.78 µg/mL (≈ 0.52 to 2.03 µM); MIC [2]: 0.2 to 0.78 µg/mL (≈ 0.52 to 2.03 µM)

Q: COc1ncccc1-c1cccnc1Oc1ccc(OCc2ccccc2)nc1 [I-176, 2-{[6-(benzyloxy)pyridin-3-yl]oxy}-2′-methoxy-3,3′-bipyridine] was tested. Which MIC [1] did it give?
A: ≤ 0.1 µg/mL

Q: What about the MIC [2] of the same compound?
A: ≤ 0.1 µg/mL
